± gives the expanded uncertainty stated by the source.
Assay: mn = molality of the nth substance listed, in mol/kg
Details: 101 kPa, Liquid; for mass density: Pycnometric method; for viscosity / speed of sound: 318.15 K; for viscosity: Capillary tube (Ostwald / Ubbelohde) method; for speed of sound: Linear variable-path acoustic interferometer

CC(=O)[O-].CC(=O)[O-].[Mg+2] [magnesium acetate] + O
Details	mass density [kg/m3]
314.7 K, m1 = 1.608	1097.8 ± 0.7
314.75 K, m1 = 2.134	1125.2 ± 0.8
314.85 K, m1 = 2.622	1148.5 ± 0.8
315 K, m1 = 5.165	1241.7 ± 0.9
315.2 K, m1 = 0.1671	1003.8 ± 0.7
315.25 K, m1 = 3.437	1186.9 ± 0.8
315.55 K, m1 = 3.819	1198.5 ± 0.8
315.65 K, m1 = 3.043	1166.4 ± 0.8
315.85 K, m1 = 1.866	1110.4 ± 0.8
316.05 K, m1 = 1.106	1068 ± 0.7
316.05 K, m1 = 6.187	1269 ± 0.9
316.25 K, m1 = 0.0414	994.01 ± 0.67
316.35 K, m1 = 6.545	1276.6 ± 0.9
316.7 K, m1 = 0.646	1037.6 ± 0.7
316.95 K, m1 = 0.0831	996.85 ± 0.69
317.05 K, m1 = 2.622	1147.3 ± 0.8
317.1 K, m1 = 0.4247	1021.9 ± 0.7
317.15 K, m1 = 1.608	1096.6 ± 0.7
317.3 K, m1 = 2.134	1124.1 ± 0.8
317.3 K, m1 = 5.732	1255.6 ± 0.9
317.7 K, m1 = 3.819	1197.2 ± 0.8
317.9 K, m1 = 6.187	1267.7 ± 0.9
318 K, m1 = 4.547	1220.8 ± 0.9
318.2 K, m1 = 1.866	1109.3 ± 0.8
318.25 K, m1 = 6.545	1275.3 ± 0.9
318.5 K, m1 = 0.0414	992.99 ± 0.68
318.6 K, m1 = 1.327	1079.4 ± 0.8
318.6 K, m1 = 2.411	1138.3 ± 0.8
318.85 K, m1 = 5.165	1239 ± 0.9
319.1 K, m1 = 1.354	1080.6 ± 1.1
319.15 K, m1 = 0.646	1036.5 ± 0.7
319.25 K, m1 = 2.622	1146.1 ± 0.8
319.35 K, m1 = 0.8751	1050.8 ± 0.7
319.4 K, m1 = 0.0831	995.82 ± 0.69
319.5 K, m1 = 1.608	1095.5 ± 0.7
319.5 K, m1 = 2.134	1122.8 ± 0.8
319.65 K, m1 = 3.437	1184.4 ± 0.9

Details	speed of sound [m/s]	viscosity [mPa·s]
m1 = 0.0414	1539.3 ± 1.9	0.6244 ± 0.0082
m1 = 0.0831	1546 ± 1.9	0.6418 ± 0.0085
m1 = 0.1671	1552.2 ± 1.9	0.6857 ± 0.009
m1 = 0.4247	1587.9 ± 1.9	0.8341 ± 0.011
m1 = 0.646	1613.4 ± 1.9	0.9967 ± 0.013
m1 = 0.8751	1638.1 ± 1.9	1.163 ± 0.015
m1 = 1.106	1661.5 ± 2	1.405 ± 0.018
m1 = 1.354	1683.6 ± 2	1.679 ± 0.022
m1 = 1.608	1705.8 ± 2	1.679 ± 0.022
m1 = 1.866	1727.8 ± 2	2.437 ± 0.032
m1 = 2.134	1749.8 ± 2	2.967 ± 0.04
m1 = 2.411	1773.8 ± 2	3.777 ± 0.051
m1 = 2.622	1782.8 ± 2	4.254 ± 0.058
m1 = 3.043	1808.1 ± 2.1	5.774 ± 0.08
m1 = 3.437	1832 ± 2.1	8.453 ± 0.12
m1 = 3.819	1846.6 ± 2.1	–
m1 = 4.001	–	12.63 ± 0.18
m1 = 4.547	1868.1 ± 2.1	–
m1 = 4.563	–	19.6 ± 0.29
m1 = 4.929	–	24.03 ± 0.38
m1 = 5.165	1882.7 ± 2.1	–
m1 = 5.41	–	41.38 ± 0.57
m1 = 5.732	1888.5 ± 2.2	53.77 ± 0.88
m1 = 6.187	–	87.61 ± 1.7

Source: the NIST ThermoML archive (doi:10.1021/je060107n)
